From patent US20090012103A1, “SUBSTITUTED HETEROCYCLIC COMPOUNDS” (priority 2007, published 2009)
Read-outs that look alike come from different tables or passages of the source.

Target: wild-type human cardiac sodium channel, hNav1.5 (Homo sapiens, UniProt Q14524)
Assay: Late INa screening assay (late sodium current, PatchXpress whole cell patch clamp)
Type: cell-based
Settings: read-out: Late INa % blk
Protocol: The late sodium current (Late INa) and peak sodium current (Peak INa) assays are performed on an automated electrophysiology platform, PatchXpress 7000A (MDS Analytical Technologies, Sunnyvale, Calif.), which uses the whole cell patch clamp technique to measure currents through the cell membrane of up to 16 cells at a time. The assay uses an HEK293 (human embryonic kidney) cell line heterologously expressing the wild-type human cardiac sodium channel, hNav1.5, purchased from Millipore (Billerica, Mass.). No beta subunits were coexpressed with the Na channel alpha subunit. […] Experiments are carried out at 24-27° C.
For both the Late INa and Peak INa assays, series resistance compensation is set to 50% and whole-cell compensation is performed automatically. […] Currents through open sodium channels are automatically recorded and stored in the DataXpress2 database (MDS Analytical Technologies, Sunnyvale, Calif.). Analysis is performed using DataXpress2 analysis software and data are compiled in Excel.
Compound stocks are routinely made in glass vials to 10 mM in dimethyl sulfoxide (DMSO). In some cases, when compounds are not soluble in DMSO, they are made in 100% ethanol. Stocks are sonicated as necessary. The extracellular solution for screening Late INa is composed of: 140 mM NaCl, 4 mM KCl, 1.8 mM CaCl2, 0.75 mM MgCl2, and 5 mM HEPES with pH adjusted to 7.4 using NaOH. The extracellular solution for screening Peak INa is composed of: 20 mM NaCl, 120 mM N-methyl-D glucamine, 4 mM KCl, 1.8 mM CaCl2, 0.75 mM MgCl2, and 5 mM HEPES with pH adjusted to 7.4 using HCl. The intracellular solution used to perfuse the inside of the cells for both the Late INa and Peak INa assays contains: 120 mM CsF, 20 mM CsCl, 5 mM EGTA, 5 mM HEPES and pH adjusted to 7.4 with CsOH. Compounds are diluted in extracellular solution to 10 μM in glass vials and then transferred to glass well plates before robotic addition to the cells. The 0 Na extracellular solution used at the end of each experiment for the Late INa and Peak INa assays to measure baseline current contains: 140 mM N-methyl-D-glucamine; 4 mM KCl; 1.8 mM CaCl2; 0.75 mM MgCl2; 5 mM HEPES and pH was adjusted to 7.4 with HCl.
For the Late INa assay, sodium channels are activated every 10 seconds (0.1 Hz) by depolarizing the cell membrane to −20 mV for 250 milliseconds (ms) from a holding potential of −120 mV.
All compounds are tested to determine their activity in blocking the late sodium current. Late INa current is generated by adding 10 μM Tefluthrin (pyrethroid) to the extracellular solution while recording Na currents. […] For some experiments, 50 nM ATX II (sea anemone toxin), another late INa activator, was used to generate the late component. […] Baseline current in the absence of Na^+ ions is measured at the end of each experiment (after two additions of 0 Na solution-see above) and is used to calculate the percent block by compound.

wild-type human cardiac sodium channel, hNav1.5, sequence (Q14524 whole entry): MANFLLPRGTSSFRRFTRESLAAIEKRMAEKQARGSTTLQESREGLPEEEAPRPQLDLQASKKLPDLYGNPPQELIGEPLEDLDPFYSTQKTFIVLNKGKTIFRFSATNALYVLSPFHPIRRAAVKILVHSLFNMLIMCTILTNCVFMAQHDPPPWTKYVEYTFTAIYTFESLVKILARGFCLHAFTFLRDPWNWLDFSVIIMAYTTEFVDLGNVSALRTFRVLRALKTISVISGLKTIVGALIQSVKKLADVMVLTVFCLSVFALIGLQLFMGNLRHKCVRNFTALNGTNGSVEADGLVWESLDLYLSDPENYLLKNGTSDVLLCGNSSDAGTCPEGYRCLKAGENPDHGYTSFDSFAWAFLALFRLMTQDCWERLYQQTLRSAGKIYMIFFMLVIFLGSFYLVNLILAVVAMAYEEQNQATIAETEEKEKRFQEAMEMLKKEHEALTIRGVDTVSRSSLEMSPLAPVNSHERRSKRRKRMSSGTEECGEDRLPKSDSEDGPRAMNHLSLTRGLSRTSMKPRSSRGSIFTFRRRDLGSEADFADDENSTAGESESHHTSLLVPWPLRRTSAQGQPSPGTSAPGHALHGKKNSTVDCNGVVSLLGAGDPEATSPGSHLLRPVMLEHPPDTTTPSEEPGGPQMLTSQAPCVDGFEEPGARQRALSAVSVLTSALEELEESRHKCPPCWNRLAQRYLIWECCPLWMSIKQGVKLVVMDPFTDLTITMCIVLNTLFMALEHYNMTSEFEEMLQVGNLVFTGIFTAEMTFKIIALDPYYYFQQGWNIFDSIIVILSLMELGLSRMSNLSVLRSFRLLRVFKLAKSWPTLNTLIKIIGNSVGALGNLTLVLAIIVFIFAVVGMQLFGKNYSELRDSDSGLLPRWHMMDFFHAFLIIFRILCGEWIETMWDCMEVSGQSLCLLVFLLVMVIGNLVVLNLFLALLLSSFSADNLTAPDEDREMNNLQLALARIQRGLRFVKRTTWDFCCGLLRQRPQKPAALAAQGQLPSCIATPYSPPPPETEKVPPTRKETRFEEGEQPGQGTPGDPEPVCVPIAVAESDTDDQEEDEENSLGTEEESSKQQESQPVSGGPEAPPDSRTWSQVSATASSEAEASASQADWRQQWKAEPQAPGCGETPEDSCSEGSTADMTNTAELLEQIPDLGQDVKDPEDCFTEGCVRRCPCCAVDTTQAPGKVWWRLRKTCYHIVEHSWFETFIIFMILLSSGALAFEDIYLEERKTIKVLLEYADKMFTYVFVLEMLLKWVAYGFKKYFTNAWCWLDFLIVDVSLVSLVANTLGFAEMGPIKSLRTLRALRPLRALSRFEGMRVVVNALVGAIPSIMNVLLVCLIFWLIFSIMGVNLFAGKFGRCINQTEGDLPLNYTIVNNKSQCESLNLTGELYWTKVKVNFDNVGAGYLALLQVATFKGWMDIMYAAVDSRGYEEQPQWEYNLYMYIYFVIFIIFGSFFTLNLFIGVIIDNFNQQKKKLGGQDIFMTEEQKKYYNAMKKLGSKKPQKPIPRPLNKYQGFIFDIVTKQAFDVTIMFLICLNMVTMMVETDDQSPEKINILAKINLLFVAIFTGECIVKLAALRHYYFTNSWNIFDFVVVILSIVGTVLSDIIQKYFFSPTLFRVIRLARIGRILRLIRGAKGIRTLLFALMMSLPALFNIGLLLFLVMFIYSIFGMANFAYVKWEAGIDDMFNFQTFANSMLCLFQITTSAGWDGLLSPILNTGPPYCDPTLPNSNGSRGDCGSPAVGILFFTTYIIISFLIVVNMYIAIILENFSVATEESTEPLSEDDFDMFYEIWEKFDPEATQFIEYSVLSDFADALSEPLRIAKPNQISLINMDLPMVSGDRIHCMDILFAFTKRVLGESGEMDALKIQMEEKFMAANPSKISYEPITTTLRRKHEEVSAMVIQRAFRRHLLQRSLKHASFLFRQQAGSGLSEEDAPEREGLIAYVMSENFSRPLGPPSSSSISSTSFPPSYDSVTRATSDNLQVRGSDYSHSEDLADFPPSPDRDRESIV

Structure (SMILES) | inhibition at 10 µM (compound at 10 μM) [%] | inhibition at 10 µM [%]
CCOC(=O)C1=C(C)Nc2[nH]nc(-c3ccc(C)cc3)c2C1c1cccc2ccccc12 (centres unmarked) [PT-073, ethyl 6-methyl-4-(naphthalen-1-yl)-3-p-tolyl-4,7-dihydro-1H-pyrazolo[3,4-b]pyridine-5-carboxylate] | -3.2 | 
CC1=C(C(=O)OCc2ccccc2)C(c2ccccc2-c2cccc(C(F)(F)F)c2)n2nnnc2N1 (centres unmarked) [PT-349, benzyl 5-methyl-7-(3′-(trifluoromethyl)biphenyl-2-yl)-4,7-dihydrotetrazolo[1,5-a]pyrimidine-6-carboxylate] | 77.3 | 
CC1=C(C(=O)OCc2ccccc2-c2ccccc2)C(c2cccc3ccccc23)n2nnnc2N1 (centres unmarked) [PT-005, biphenyl-2-ylmethyl 5-methyl-7-(naphthalen-1-yl)-4,7-dihydrotetrazolo[1,5-a]pyrimidine-6-carboxylate] | 25.4 | 
CCOC(=O)C1=C(C)Nc2nnnn2C1c1ccccc1-n1cncn1 (centres unmarked) [PT-475, ethyl 7-(2-(1H-1,2,4-triazol-1-yl)phenyl)-5-methyl-4,7-dihydrotetrazolo[1,5-a]pyrimidine-6-carboxylate] | 5.5 | 
CC1=C(C(=O)OC(C)C)C(c2cnn(-c3ccccc3C)c2C)C2=C(CC(C)(C)CC2=O)N1 (centres unmarked) [PT-161, isopropyl 2,7,7-trimethyl-4-(5-methyl-1-o-tolyl-1H-pyrazol-4-yl)-5-oxo-1,4,5,6,7,8-hexahydroquinoline-3-carboxylate] | 6.8 | 
CCOC(=O)C1=C(C(C)C)Nc2nnnn2C1c1cccc2ccccc12 (centres unmarked) [PT-013, ethyl 5-isopropyl-7-(naphthalen-1-yl)-4,7-dihydrotetrazolo[1,5-a]pyrimidine-6-carboxylate] |  | 45.4
CCCC1=C(C(=O)OCC)C(c2ccsc2)C2=C(CC(C)(C)CC2=O)N1 (centres unmarked) [PT-151, ethyl 7,7-dimethyl-5-oxo-2-propyl-4-(thiophen-3-yl)-1,4,5,6,7,8-hexahydroquinoline-3-carboxylate] | 35 | 
CCOC(=O)C1=C(C)Nc2nnnn2C1c1ccccc1Oc1ccc(-c2nnn[nH]2)cc1 (centres unmarked) [PT-481, ethyl 7-(2-(4-(1H-tetrazol-5-yl)phenoxy)phenyl)-5-methyl-4,7-dihydrotetrazolo[1,5-a]pyrimidine-6-carboxylate] | 18 | 
CC1=C(C(=O)OC2Cc3ccccc3C2)C(c2cccc3ccccc23)n2nnnc2N1 (centres unmarked) [PT-260, 2,3-dihydro-1H-inden-2-yl 5-methyl-7-(naphthalen-1-yl)-4,7-dihydrotetrazolo[1,5-a]pyrimidine-6-carboxylate] | 74.8 | 
CC1=C(C(=O)N2CCC(c3cccc(C(=O)O)c3)CC2)C(c2cccc3ccccc23)C2=C(CCCC2=O)N1 (centres unmarked) [PT-172, 3-(1-(2-methyl-4-(naphthalen-1-yl)-5-oxo-1,4,5,6,7,8-hexahydroquinoline-3-carbonyl)piperidin-4-yl)benzoic acid] | 16.3 | 
CC1=C(C(=O)N2CCc3ccccc3C2)C(c2cccc3ccccc23)C2=C(CCCC2=O)N1 (centres unmarked) [PT-171, 2-methyl-4-(naphthalen-1-yl)-3-(1,2,3,4-tetrahydroisoquinoline-2-carbonyl)-4,6,7,8-tetrahydroquinolin-5(1H)-one] | 20.2 | 
COC(=O)C1=C(C)Nc2nnnn2C1c1sc2ccccc2c1Br (centres unmarked) [PT-520, methyl 7-(3-bromobenzo[b]thiophen-2-yl)-5-methyl-4,7-dihydrotetrazolo[1,5-a]pyrimidine-6-carboxylate] | 78.4 | 
CC1=C(C(=O)OCc2ccccc2)C(c2ccc3ccccc3c2)C(C(=O)OCc2ccccc2)=C(C)N1 [PT-129, dibenzyl 2,6-dimethyl-4-(naphthalen-2-yl)-1,4-dihydropyridine-3,5-dicarboxylate] | 17.6 | 
COC(=O)C1=C(C)Nc2[nH]ncc2C1c1sc(Cl)nc1Cl (centres unmarked) [PT-510, methyl 4-(2,4-dichlorothiazol-5-yl)-6-methyl-4,7-dihydro-1H-pyrazolo[3,4-b]pyridine-5-carboxylate] | 19.9 | 
CC1=C(C(=O)OCc2ccccc2)C(c2ccc3ccccc3c2)n2nnnc2N1 (centres unmarked) [PT-028, benzyl 5-methyl-7-(naphthalen-2-yl)-4,7-dihydrotetrazolo[1,5-a]pyrimidine-6-carboxylate] | 23.1 | 
COc1ccc2ccccc2c1C1C(C(=O)O[C@@H](C)c2ccccc2)=C(C)Nc2nnnn21 (stereo partly drawn) [PT-053, (S)-1-phenylethyl 7-(2-methoxynaphthalen-1-yl)-5-methyl-4,7-dihydrotetrazolo[1,5-a]pyrimidine-6-carboxylate] | 53.6 | 
COc1ccc(C2C(C(=O)OCc3ccc(Cn4cccn4)cc3)=C(C)Nc3nnnn32)c2ccccc12 (centres unmarked) [PT-284, 4-((1H-pyrazol-1-yl)methyl)benzyl 7-(4-methoxynaphthalen-1-yl)-5-methyl-4,7-dihydrotetrazolo[1,5-a]pyrimidine-6-carboxylate] | 49.5 | 
COc1cc([N+](=O)[O-])ccc1C1C(C(=O)OCc2ccccc2)=C(C)Nc2nnnn21 (centres unmarked) [PT-395, benzyl 7-(2-methoxy-4-nitrophenyl)-5-methyl-4,7-dihydrotetrazolo[1,5-a]pyrimidine-6-carboxylate] | 48.7 | 
CCOC(=O)C1=C(C)Nc2nnnn2C1c1ccccc1Oc1ccc(C#N)cc1 (centres unmarked) [PT-485, ethyl 7-(2-(4-cyanophenoxy)phenyl)-5-methyl-4,7-dihydrotetrazolo[1,5-a]pyrimidine-6-carboxylate] | 5.2 | 
CC1=C(C(=O)OCc2ccccc2)C(c2ccsc2)n2nnnc2N1 (centres unmarked) [PT-041, benzyl 5-methyl-7-(thiophen-3-yl)-4,7-dihydrotetrazolo[1,5-a]pyrimidine-6-carboxylate] | 41.4 | 
COc1cc(-c2nnn[nH]2)ccc1C1C(C(=O)OCc2ccccc2)=C(C)Nc2nnnn21 (centres unmarked) [PT-393, benzyl 7-(2-methoxy-4-(1H-tetrazol-5-yl)phenyl)-5-methyl-4,7-dihydrotetrazolo[1,5-a]pyrimidine-6-carboxylate] | 9.8 | 
CCOC(=O)C1=C(C)NC(C)=C(C(=O)OCC)C1c1ccc(OC)cc1C#N [PT-431, diethyl 4-(2-cyano-4-methoxyphenyl)-2,6-dimethyl-1,4-dihydropyridine-3,5-dicarboxylate] | 56.1 | 
CC1=C(C(=O)OCc2ccc(C#N)cc2)C(c2cccc3ccccc23)n2nnnc2N1 (centres unmarked) [PT-046, 4-cyanobenzyl 5-methyl-7-(naphthalen-1-yl)-4,7-dihydrotetrazolo[1,5-a]pyrimidine-6-carboxylate] | 67 | 
CC1=C(C(=O)N2CCN(c3ccc(C(=O)O)cc3)CC2)C(c2cccc3ccccc23)C2=C(CCCC2=O)N1 (centres unmarked) [PT-297, 4-(4-(2-methyl-4-(naphthalen-1-yl)-5-oxo-1,4,5,6,7,8-hexahydroquinoline-3-carbonyl)piperazin-1-yl)benzoic acid] | 4.9 | 
c1ccc2c(c1)CCC1=C2C(c2cccc3ccccc23)n2nnnc2N1 (centres unmarked) [PT-198, 12-(naphthalen-1-yl)-5,6,7,12-tetrahydrobenzo[f]tetrazolo[5,1-b]quinazoline] |  | 50.9
CC1=C(C(=O)OCc2ccccc2)C(c2ccnc3ccccc23)n2nnnc2N1 (centres unmarked) [PT-197, benzyl 5-methyl-7-(quinolin-4-yl)-4,7-dihydrotetrazolo[1,5-a]pyrimidine-6-carboxylate] | 21.5 | 
CC1=C(C(=O)OCCOc2ccc(C(=O)O)cc2)C(c2cccc3ccccc23)n2nnnc2N1 (centres unmarked) [PT-290, 4-(2-(5-methyl-7-(naphthalen-1-yl)-4,7-dihydrotetrazolo[1,5-a]pyrimidine-6-carbonyloxy)ethoxy)benzoic acid] | 14.4 | 
CCn1c2ccccc2c2cc(C3C(C(=O)OCc4ccccc4)=C(C)Nc4nnnn43)ccc21 (centres unmarked) [PT-422, benzyl 7-(9-ethyl-9H-carbazol-3-yl)-5-methyl-4,7-dihydrotetrazolo[1,5-a]pyrimidine-6-carboxylate] | 35.2 | 
CCOC(=O)C1=C(C)OC(N)=C(C#N)C1c1ccco1 (centres unmarked) [PT-092, ethyl 6-amino-5-cyano-4-(furan-2-yl)-2-methyl-4H-pyran-3-carboxylate] | -0.2 | 
